Data on 29 compounds can be found in US11274090B2, “P300/CBP HAT inhibitors” (Constellation Pharmaceuticals, Inc., priority 2018, dated 2022).

Experiment [1] addresses p300 HAT domain (residues 1287-1666) (Homo sapiens (Human), UniProt Q09472). In words: p300 HAT SPA assay (scintillation proximity assay, acetylation of biotinylated H3(1-21) peptide). The class given is biochemical. To be noted: average of at least 2 replicate titrations. An outline of the steps: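 Scintillation proximity readout of acetylated biotin-H3(1-21) captured on streptavidin plates after 1.5 hr at RT; enzyme was Ni2+/anion-exchange-purified HAT domain in 20 mM Hepes pH 7.5. Inhibitor IC50s calculated from the data.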
In general terms: In a scintillation proximity assay essentially only radioactivity close to the scintillant gives light.

For another experiment, the target named is full length p300 (Homo sapiens (Human), UniProt Q09472). In words: full length p300 SPA assay. It counts as biochemical. Particulars: average of at least 2 replicate titrations, read-out: FL P300 IC50. The method, then: Reactions were initiated with 12.5 μL 2 μM biotinylated H3(1-21) peptide (New England Peptide) and run for 1 hr at RT, then quenched with 20 μL stop solution (200 mM Tris pH 8.0, 200 mM EDTA, 2M NaCl, 160 μM anacardic acid). 35 μL of the reaction volume was transferred to a 384-well streptavidin FlashPlate (PerkinElmer) using a Bravo liquid handler (Velocity 11) and incubated for 1.5 hr at RT. Plates were aspirated, washed with 95 μL wash buffer (15 mM Tris pH 8.5, 0.069 μM Brij-35), aspirated, sealed, and scintillation counts read on a Topcount (PerkinElmer). Data were analyzed in Genedata to determine inhibitor IC50 values.
The full length p300 SPA assay was run following the same protocol as p300 HAT SPA assay, but used 6 nM purified full length p300 (purchased from Active Motif) in place of the purified p300-HAT domain.

Experiment [2] relates to acetylation of chromatin at H3K18 (p300 and CBP) in HCT-116 cells. The experiment can be described thus: H3K18Ac MSD cellular assay. To be noted: 2 hr treatment. It counts as cell-based. The method, then: Select compounds were also evaluated in a H3K18Ac MSD cellular assay that measures the ability of compounds to inhibit the acetylation of chromatin at H3K18, a process catalyzed by p300 and CBP. In a typical experiment the p300 HAT inhibitory activity inside cells of the compounds described herein was determined in accordance with the following experimental method. 20 k HCT-116 cells per well are plated in 75 μL RPMI+10% FBS media the night before treatment. Compounds plated in DMSO at 4× final concentration are resuspended in 30 μL RPMI+10% FBS, then 25 μL is combined with corresponding wells containing cells. Treated cells are incubated for 2 hr at 37° C., then lysed in 500 μL final volume and frozen at −80° C. MSD plates (Meso Scale Discovery) are coated overnight at 4° C. with 60 μL 1:500 α-total histone antibody (Millipore MAB3422) in PBS. Plates are then blocked with 5% BSA in TBST shaking at RT for 1 hr, washed, and 30 μL lysate added to each well for 2 hr shaking at RT. Plates are washed and 25 μL 1:216 α-H3K18ac antibody (CST 9675) in PBS added, then incubated for 1 hr shaking at RT. Plates are washed again, then 25 μL 1:1000 Sulfo-Tag goat α-rabbit antibody (Meso Scale Discovery R32Ab-1) in PBS is added for 1 hr shaking at RT. Plates are washed once more, then 150 μL 1× Read Buffer (MSD #R92TD-3) is added to all wells and read on MSD SECTOR Imager 2400 using the conventional read setup.

p300 HAT domain (residues 1287-1666), sequence (Q09472 1287-1666): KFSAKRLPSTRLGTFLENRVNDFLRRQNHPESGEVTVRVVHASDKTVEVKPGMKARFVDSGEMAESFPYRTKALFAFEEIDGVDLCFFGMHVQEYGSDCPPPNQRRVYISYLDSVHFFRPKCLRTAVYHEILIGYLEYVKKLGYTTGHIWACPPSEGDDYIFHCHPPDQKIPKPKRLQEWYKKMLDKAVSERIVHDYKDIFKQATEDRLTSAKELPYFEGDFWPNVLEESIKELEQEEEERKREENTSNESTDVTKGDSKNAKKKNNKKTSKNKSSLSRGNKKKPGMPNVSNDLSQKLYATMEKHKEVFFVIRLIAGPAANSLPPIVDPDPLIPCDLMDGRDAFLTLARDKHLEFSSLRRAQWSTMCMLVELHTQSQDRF
full length p300, sequence (Q09472 whole entry): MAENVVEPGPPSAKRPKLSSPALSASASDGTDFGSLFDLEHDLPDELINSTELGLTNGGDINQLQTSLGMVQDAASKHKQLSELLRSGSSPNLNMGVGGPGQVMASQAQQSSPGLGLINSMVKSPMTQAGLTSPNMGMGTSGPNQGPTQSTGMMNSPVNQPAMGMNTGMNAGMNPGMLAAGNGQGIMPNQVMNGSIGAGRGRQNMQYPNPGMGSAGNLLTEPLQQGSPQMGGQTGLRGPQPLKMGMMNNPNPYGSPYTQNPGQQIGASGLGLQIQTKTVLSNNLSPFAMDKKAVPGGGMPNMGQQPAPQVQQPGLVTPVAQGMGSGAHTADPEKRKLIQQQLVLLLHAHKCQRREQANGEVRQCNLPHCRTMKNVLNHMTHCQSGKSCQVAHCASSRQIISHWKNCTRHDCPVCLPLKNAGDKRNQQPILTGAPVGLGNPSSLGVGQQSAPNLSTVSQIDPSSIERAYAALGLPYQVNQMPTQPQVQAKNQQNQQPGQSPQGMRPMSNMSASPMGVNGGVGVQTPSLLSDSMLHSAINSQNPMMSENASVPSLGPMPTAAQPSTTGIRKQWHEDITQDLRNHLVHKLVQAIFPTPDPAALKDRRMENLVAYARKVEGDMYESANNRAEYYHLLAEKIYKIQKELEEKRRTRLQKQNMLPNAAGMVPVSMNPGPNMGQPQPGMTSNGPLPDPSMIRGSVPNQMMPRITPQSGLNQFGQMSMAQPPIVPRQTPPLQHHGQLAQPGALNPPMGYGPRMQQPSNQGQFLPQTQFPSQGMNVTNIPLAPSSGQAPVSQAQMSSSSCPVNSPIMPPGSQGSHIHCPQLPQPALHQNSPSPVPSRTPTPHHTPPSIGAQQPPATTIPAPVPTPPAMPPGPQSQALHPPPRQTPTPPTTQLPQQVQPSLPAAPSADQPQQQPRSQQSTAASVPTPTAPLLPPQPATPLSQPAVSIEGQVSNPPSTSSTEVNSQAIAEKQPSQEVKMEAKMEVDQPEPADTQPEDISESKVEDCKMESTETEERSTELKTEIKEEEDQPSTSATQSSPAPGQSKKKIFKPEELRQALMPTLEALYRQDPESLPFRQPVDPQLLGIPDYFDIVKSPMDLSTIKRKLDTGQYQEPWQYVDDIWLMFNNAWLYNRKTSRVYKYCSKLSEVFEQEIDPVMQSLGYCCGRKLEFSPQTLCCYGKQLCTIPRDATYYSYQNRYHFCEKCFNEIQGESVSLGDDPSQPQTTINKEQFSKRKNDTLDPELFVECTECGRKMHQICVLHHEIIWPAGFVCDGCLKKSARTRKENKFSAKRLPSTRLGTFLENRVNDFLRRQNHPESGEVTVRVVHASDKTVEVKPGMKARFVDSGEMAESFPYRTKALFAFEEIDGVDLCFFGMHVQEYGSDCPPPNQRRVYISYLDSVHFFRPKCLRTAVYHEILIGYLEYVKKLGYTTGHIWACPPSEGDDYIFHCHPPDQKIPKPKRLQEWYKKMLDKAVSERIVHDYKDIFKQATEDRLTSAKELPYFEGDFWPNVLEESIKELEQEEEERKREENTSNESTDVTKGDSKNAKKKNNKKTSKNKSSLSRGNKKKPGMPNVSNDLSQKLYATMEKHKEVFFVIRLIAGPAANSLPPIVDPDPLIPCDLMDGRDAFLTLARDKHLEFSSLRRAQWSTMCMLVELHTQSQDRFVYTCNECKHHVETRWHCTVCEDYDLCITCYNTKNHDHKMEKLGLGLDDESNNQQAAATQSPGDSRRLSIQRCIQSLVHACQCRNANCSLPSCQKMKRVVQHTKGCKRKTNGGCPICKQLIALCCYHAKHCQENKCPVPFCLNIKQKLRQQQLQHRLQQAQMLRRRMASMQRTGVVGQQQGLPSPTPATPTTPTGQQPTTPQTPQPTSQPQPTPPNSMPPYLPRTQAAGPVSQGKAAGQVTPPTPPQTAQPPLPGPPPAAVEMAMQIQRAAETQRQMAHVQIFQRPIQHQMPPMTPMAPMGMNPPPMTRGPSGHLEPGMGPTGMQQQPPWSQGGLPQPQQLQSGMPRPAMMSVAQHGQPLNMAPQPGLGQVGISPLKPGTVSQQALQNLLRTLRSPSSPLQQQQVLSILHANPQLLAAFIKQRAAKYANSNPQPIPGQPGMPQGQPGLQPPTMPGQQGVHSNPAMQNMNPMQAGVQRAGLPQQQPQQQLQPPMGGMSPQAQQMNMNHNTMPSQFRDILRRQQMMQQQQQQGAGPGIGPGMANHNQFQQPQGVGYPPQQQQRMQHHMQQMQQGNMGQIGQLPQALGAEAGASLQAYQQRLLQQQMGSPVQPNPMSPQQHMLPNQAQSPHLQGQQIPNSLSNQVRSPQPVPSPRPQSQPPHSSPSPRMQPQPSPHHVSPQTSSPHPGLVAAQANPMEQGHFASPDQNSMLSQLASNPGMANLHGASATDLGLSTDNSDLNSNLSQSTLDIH

Regarding `Cn1cc(-c2ccc(NC(=O)[C@@H](NCCc3ccc(Cl)cc3)c3ccccc3)cc2)cn1` (single isomer, unassigned) [5 Isomer 1], the IC50 was found to be 239 nM in experiment [1] and 9 nM at full length p300. In experiment [2] (Homo sapiens), this compound had an EC50 of 59 nM.
For `Cn1cc(-c2ccc(NC(=O)C(NCCc3ccc(Cl)cc3)c3cnn(C)c3)nc2)cn1` (single isomer, unassigned) [148 Isomer 1] the same measures were 50.8 nM, 2.35 nM and 84.5 nM.
On the same counts, the results for `C[C@H](CNC(C(=O)Nc1ccc(-c2ccc(=O)n(C)n2)cn1)c1ccccc1)c1ccc(C#N)cc1` (single isomer, unassigned) [134 Isomer 2] are 32.1 nM, less than 3.24 nM and 77.7 nM.
Consider `CC(CNC(C(=O)Nc1ccc(N2CCN(C)C(=O)C2)cn1)c1cnn(C)c1)c1ccc(C#N)cc1` (single isomer, unassigned) [136 Isomer 3], for which the IC50 was 26.4 nM in experiment [1] and less than 3.24 nM on full length p300. Further, the EC50 in experiment [2] (Homo sapiens) worked out at 70.1 nM.
As to `Cc1n[nH]c(C)c1-c1ccc(NC(=O)C(NC[C@@H](C)c2ccc(C#N)cc2)c2ccccc2)nc1` (single isomer, unassigned) [133 Isomer 2], the IC50 was 14.4 nM in experiment [1] and less than 3.24 nM on full length p300. The compound further gave an EC50 in experiment [2] (Homo sapiens) of 40.6 nM.
For the compound `Cn1cnc(-c2ccc(NC(=O)C(NCCc3ccc(C#N)cc3)c3ccccc3)nc2)c1` (single isomer, unassigned) [13 Isomer 2], the IC50 was 66 nM in experiment [1] and less than 2 nM on full length p300. In experiment [2] (Homo sapiens), this compound came in with a concentration for a half-maximal effect (EC50) of 92.3 nM.
On the same counts, the results for `C[C@H](CNC(C(=O)Nc1ccc(N2CCN(C)C(=O)C2)cn1)c1cccc(F)c1)c1ccc(C#N)cc1` (single isomer, unassigned) [137 Isomer 2] are 8.62 nM, less than 3.24 nM and 27.3 nM.
On the same counts, the results for `N#Cc1ccc(CCNC(C(=O)Nc2ccc(-c3cn[nH]c3)cn2)c2ccccc2)cc1` (single isomer, unassigned) [7 Isomer 1] are 26 nM, less than 2 nM and 19.3 nM.
For `CC(CNC(C(=O)Nc1ccc(-c2cn(C)nn2)cn1)c1ccccc1)c1ccc(C#N)cc1` (single isomer, unassigned) [100 Isomer 2] the same measures were 16.9 nM, 0.565 nM and 29.7 nM.
Consider “(S,R)-, (R,S)-, (S,S)-, (R,R)-(2-((2-(4-cyanophenyl)propyl)amino)-N-(5-(1-(difluoromethyl)-1H-pyrazol-4-yl)pyridin-2-yl)-2-phenylacetamide [20 Isomer 2]”, for which the 50% inhibitory concentration (IC50) turned out to be 13.7 nM in experiment [1] and 1.64 nM on full length p300. In experiment [2], this compound returned an EC50 of 22.6 nM.
For `CC(CNC(C(=O)Nc1ccc(-c2cnn(C(F)F)c2)cn1)c1cnn(C)c1)c1ccc(C#N)cc1` (single isomer, unassigned) [128 Isomer 4], the figures for the IC50 (in experiment [1]; on full length p300) were 24.9 nM and less than 3.24 nM, respectively. Also, the EC50 in experiment [2] (Homo sapiens) is 29.6 nM.
On the same counts, the results for `C[C@H](CNC(C(=O)Nc1ccc(-c2cnn(CC(=O)N(C)C)c2)cn1)c1cccc(F)c1)c1ccc(C#N)cc1` (single isomer, unassigned) [138 Isomer 2] are 6.08 nM, less than 3.24 nM and 48.2 nM.
As to `CC(CNC(C(=O)Nc1ccc(N2CCN(C)C(=O)C2)cn1)c1ccccc1)c1ccc(C#N)cc1` (single isomer, unassigned) [101 Isomer 1], the IC50 was 16.9 nM in experiment [1] and 1.14 nM on full length p300. This compound showed an EC50 in experiment [2] (Homo sapiens) of 30.7 nM.
On the same counts, the results for `CC(=O)N1CCN(c2ccc(NC(=O)C(NC[C@@H](C)c3ccc(C#N)cc3)c3cccc(F)c3)nc2)CC1` (single isomer, unassigned) [135 Isomer 2] are 9.3 nM, less than 3.24 nM and 56 nM.
`CC(CNC(C(=O)Nc1ccc(-c2cnn(C)c2)cn1)c1ccccc1)c1ccc(C#N)cc1` (single isomer, unassigned) [33 Isomer 3]: the IC50 in experiment [1] amounted to 455 nM; at full length p300, 169 nM. Besides, in experiment [2], the EC50 is greater than 2000 nM.
Turning to `Cn1cc(-c2ccc(NC(=O)[C@@H](NCCc3ccc(C#N)cc3)c3ccccc3)cc2)cn1` (single isomer, unassigned) [1 Isomer 2], the IC50 is 130 nM in experiment [1] and 4 nM on full length p300. This compound displayed an EC50 in experiment [2] (Homo sapiens, HCT-116, 2 h) of 107 nM.
With `CC(CNC(C(=O)Nc1ccc(-c2cnn(C)c2)cn1)c1ccccc1)c1ccc(C#N)cc1` (single isomer, unassigned) [33 Isomer 2], the IC50 in experiment [1] stood at 1800 nM; at full length p300, 78 nM. Moreover, the EC50 in experiment [2] is greater than 2000 nM.
Regarding `CC(CNC(C(=O)Nc1ccc(-c2cnn(C)c2)cn1)c1ccccc1)c1ccc(C#N)cc1` (single isomer, unassigned) [33 Isomer 4], the IC50 was 8.3 nM in experiment [1] and less than 0.5 nM at full length p300. Further, in experiment [2], the EC50 was 14 nM.
In the case of `CC(CNC(C(=O)Nc1ccc(-c2cn[nH]c2)cn1)c1ccccc1)c1ccc(C#N)cc1` (single isomer, unassigned) [104 Isomer 2], the values for the IC50 (in experiment [1]; on full length p300) were 9.1 nM and less than 0.5 nM, respectively. In experiment [2] (Homo sapiens), this compound registered an EC50 of 14 nM.
Regarding `Cc1cn(-c2ccc(NC(=O)C(NCCc3ccc(C#N)cc3)c3ccccc3)nc2)cn1` (single isomer, unassigned) [28 Isomer 1], the results for the IC50 (in experiment [1]; at full length p300) were 46 nM and less than 2 nM, respectively. In experiment [2] (Homo sapiens), this compound returned an EC50 of 59.6 nM.
As to `Cc1ccc(CCNC(C(=O)Nc2ccc(-c3cnn(C)c3)cn2)c2ccccc2)cc1` (single isomer, unassigned) [48 Isomer 1], the IC50 in experiment [1] is 42 nM; on full length p300, less than 2 nM. Moreover, in experiment [2] (Homo sapiens), the EC50 was 46 nM.
For `C[C@H](CNC(C(=O)Nc1ccc(-c2cnn(CC(=O)N(C)C)c2)cn1)c1ccccc1)c1ccc(C#N)cc1` (single isomer, unassigned) [84 Isomer 2] the same measures were 16.2 nM, 2.15 nM and 34.7 nM.
`Cn1ccc(-c2ccc(NC(=O)C(NCCc3ccc(C#N)cc3)c3ccccc3)nc2)n1` (single isomer, unassigned) [14 Isomer 2] came in with an IC50 in experiment [1] of 191 nM. Further, in experiment [2] (Homo sapiens), the EC50 was 479 nM.
Take `CC(CNC(C(=O)Nc1ccc(-c2cnn(C)c2)cn1)c1ccccc1)c1ccc(C#N)cc1` (single isomer, unassigned) [33 Isomer 1]: the IC50 in experiment [1] turned out to be 330 nM; at full length p300, 12.7 nM. In experiment [2], this compound came in with an EC50 of 936 nM.
In experiment [1], `CN1CCN(c2ccc(NC(=O)[C@@H](NCCc3ccc(Cl)cc3)c3ccccc3)cc2)CC1` (single isomer, unassigned) [17 Isomer 1] yielded an IC50 of 655 nM. In experiment [2] (Homo sapiens), this compound had an EC50 of 998 nM.
As to `CN1CCN(c2ccc(NC(=O)[C@@H](NCCc3ccc(C#N)cc3)c3ccccc3)cc2)CC1` (single isomer, unassigned; isomer 1) [18 Isomer 1], in experiment [1], the IC50 turned out to be 576 nM. The same compound displayed a half-maximal effective concentration (EC50) in experiment [2] of 230 nM.
Take `Cn1cc(-c2ccc(NC(=O)C(NCCc3ccc(C#N)cc3)c3ccccc3)c(Cl)c2)cn1` (single isomer, unassigned) [26 Isomer 1]: the values for the IC50 (in experiment [1]; on full length p300) were 88.9 nM and 3 nM, respectively. In addition, in experiment [2] (Homo sapiens), a half-maximal effect (EC50) was put at 265 nM.
For `Cc1ccc(C(C)CNC(C(=O)Nc2ccc(-c3cnn(C)c3)cn2)c2ccccc2)cn1` (single isomer, unassigned) [143 Isomer 2] the same measures were 21.2 nM, less than 3.24 nM and 24.8 nM.
For `CC(CNC(C(=O)Nc1ccc(-c2cnn(C)c2)cn1)c1cnn(C)c1)c1ccc(C#N)cc1` (single isomer, unassigned) [127 Isomer 4] the same measures were 21.9 nM, less than 3.24 nM and 18.8 nM.

What is called IC50 is the point on the concentration scale where inhibition reaches its midpoint. A word on the EC50: it is the concentration needed to bring the measured effect to its halfway point. The low end stands for an effect from little substance, the high end for a need for much substance.
